Type in all cases: cell-based
The target in assay [1] is T1, human TLR7 (Homo sapiens, UniProt Q9NYK1).
T1 construct: host or cells: HEK-Blue cells
T1 sequence (Q9NYK1 27-1049): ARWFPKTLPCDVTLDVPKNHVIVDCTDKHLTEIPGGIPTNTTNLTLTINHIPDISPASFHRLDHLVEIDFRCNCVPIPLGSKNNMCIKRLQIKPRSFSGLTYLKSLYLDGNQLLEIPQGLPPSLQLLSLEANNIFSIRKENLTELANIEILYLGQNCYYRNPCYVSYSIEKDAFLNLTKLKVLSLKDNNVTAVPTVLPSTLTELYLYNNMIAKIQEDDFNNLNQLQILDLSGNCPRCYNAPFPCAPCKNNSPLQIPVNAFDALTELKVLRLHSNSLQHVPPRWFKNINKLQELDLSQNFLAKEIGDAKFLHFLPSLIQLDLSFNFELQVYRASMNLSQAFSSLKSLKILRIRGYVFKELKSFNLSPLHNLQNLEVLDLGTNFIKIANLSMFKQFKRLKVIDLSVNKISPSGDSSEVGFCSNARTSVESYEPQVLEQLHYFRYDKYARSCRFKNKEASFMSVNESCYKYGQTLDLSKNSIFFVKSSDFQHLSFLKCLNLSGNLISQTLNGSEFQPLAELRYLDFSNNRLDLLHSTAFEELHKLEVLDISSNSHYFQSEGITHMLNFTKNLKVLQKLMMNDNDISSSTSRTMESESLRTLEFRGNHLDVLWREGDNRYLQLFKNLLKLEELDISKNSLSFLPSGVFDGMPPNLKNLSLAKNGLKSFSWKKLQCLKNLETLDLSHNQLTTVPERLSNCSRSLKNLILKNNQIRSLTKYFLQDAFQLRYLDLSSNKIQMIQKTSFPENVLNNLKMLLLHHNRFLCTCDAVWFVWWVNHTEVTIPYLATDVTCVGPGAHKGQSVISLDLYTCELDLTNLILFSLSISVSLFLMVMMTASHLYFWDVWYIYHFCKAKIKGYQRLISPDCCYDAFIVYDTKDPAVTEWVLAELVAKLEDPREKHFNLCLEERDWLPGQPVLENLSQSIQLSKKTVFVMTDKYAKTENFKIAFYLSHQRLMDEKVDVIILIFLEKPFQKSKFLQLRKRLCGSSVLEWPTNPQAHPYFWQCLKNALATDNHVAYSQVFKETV
Nature of the assay: TLR7 inhibition reporter assay (HEK-Blue cells, SEAP reporter, gardiquimod stimulation). The conditions noted are these: HEK-Blue cells overexpressing human TLR7, SEAP reporter, gardiquimod 7.5 μM. The procedure, abridged:
(§1)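 SEAP readout after 22 h agonist exposure at 37 °C; final agonist levels were 7.5 μM gardiquimod (TLR7), 15.9 μM R848 (TLR8) and 5 nM ODN2006 (TLR9). Inhibitors, spanning 0.05 nM to 50 μM final, were applied 30 min beforehand.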
Background: In a reporter assay the amount or activity of a reporter protein is the signal.

For assay [2], the target named is T2, human TLR9 (Homo sapiens, UniProt Q9NR96).
T2 construct: host or cells: HEK-Blue cells
T2 sequence (Q9NR96 26-1032): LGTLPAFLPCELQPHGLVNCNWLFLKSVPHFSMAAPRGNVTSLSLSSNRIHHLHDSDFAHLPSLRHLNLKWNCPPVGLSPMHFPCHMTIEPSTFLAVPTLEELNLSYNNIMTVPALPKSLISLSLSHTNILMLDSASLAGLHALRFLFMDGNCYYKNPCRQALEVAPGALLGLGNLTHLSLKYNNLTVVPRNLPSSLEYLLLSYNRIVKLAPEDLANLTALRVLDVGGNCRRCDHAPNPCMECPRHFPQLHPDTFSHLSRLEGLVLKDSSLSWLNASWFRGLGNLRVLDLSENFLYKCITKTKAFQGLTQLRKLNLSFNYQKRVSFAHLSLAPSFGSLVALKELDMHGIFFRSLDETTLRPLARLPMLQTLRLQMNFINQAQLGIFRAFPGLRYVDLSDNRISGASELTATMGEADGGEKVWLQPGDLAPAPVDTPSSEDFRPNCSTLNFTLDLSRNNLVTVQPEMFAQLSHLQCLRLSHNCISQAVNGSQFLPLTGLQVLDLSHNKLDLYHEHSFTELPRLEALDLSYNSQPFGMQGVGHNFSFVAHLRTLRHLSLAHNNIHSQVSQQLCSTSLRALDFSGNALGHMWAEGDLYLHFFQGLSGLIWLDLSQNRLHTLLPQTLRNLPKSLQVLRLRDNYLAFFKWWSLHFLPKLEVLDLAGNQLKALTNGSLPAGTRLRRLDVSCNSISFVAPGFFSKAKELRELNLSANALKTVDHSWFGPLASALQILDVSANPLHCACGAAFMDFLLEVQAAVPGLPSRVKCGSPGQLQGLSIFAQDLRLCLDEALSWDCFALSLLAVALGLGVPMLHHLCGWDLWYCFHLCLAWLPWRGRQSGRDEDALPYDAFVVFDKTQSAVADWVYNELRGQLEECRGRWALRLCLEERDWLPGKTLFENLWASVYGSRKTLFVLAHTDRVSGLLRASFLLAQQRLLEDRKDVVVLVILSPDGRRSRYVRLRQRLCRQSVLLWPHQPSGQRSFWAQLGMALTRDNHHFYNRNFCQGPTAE
Nature of the assay: TLR9 inhibition reporter assay (HEK-Blue cells, SEAP reporter, ODN2006 stimulation). The following applies: HEK-Blue cells overexpressing human TLR9, SEAP reporter, ODN2006 5 nM. The procedure, abridged: as §1

Assay [3] has as its target T3, human TLR8 (Homo sapiens, UniProt Q9NR97).
T3 construct: host or cells: HEK-Blue cells
T3 sequence (Q9NR97 27-1041): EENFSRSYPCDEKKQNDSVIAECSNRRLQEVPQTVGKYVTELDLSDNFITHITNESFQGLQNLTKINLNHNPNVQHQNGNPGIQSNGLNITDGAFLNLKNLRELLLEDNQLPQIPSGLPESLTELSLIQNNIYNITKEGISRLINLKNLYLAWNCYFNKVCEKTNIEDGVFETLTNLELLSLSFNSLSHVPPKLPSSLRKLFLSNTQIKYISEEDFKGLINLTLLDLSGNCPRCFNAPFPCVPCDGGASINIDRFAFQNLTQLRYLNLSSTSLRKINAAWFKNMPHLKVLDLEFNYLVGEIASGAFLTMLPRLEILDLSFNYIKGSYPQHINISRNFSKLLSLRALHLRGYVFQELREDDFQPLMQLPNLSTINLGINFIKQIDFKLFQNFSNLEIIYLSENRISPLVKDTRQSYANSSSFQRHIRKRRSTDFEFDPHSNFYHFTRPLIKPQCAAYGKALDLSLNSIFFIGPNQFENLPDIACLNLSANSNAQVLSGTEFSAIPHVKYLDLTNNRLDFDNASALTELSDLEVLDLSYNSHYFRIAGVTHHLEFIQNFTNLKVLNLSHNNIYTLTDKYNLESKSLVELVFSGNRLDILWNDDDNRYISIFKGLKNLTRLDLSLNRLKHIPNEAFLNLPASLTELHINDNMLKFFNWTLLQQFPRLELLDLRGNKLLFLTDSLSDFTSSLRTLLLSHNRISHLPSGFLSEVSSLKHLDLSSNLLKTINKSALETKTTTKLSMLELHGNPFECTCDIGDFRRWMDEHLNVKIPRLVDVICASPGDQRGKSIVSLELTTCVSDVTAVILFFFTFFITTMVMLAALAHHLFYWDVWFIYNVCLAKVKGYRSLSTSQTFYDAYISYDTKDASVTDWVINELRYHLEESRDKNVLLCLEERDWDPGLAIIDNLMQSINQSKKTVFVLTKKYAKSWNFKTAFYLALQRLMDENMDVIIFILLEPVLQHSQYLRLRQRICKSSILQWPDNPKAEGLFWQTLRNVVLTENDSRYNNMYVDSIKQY
Nature of the assay: TLR8 inhibition reporter assay (HEK-Blue cells, SEAP reporter, R848 stimulation). The following applies: HEK-Blue cells overexpressing human TLR8, SEAP reporter, R848 15.9 μM. The procedure, abridged:
as §1

The structures appear in SMILES notation.

Consider `Cc1cc(-c2[nH]c3ccc(C4CNCCO4)cc3c2C(C)C)cn2ncnc12` (stereo not drawn) [Example 283], for which the half-maximal inhibitory concentration (IC50) in assay [1] worked out at 0.95 nM; in assay [2], 2670 nM; in assay [3], 1.3 nM.
For `COc1cc(-c2[nH]c3ccc(C4CNCCO4)cc3c2C(C)C)cn2ncnc12` (stereo not drawn) [Example 284] the same measures were 1 nM, 1820 nM and 0.85 nM.
In the case of `COc1cc(-c2[nH]c3ccc(C4CNCCO4)cc3c2C(C)C)cn2ncnc12` (stereo not drawn) [Example 285], the values for the 50% inhibitory concentration (IC50) in assay [1], in assay [2] and in assay [3] were 0.43 nM, 959 nM and 0.56 nM, respectively.
For `Cc1c(-c2[nH]c3ccc(C4CNCCO4)cc3c2C(C)C)cn2ncnc2c1C` (stereo not drawn) [Example 286], in that order: 1 nM, 5390 nM and 0.73 nM.
For `Cc1c(-c2[nH]c3ccc(C4CNCCO4)cc3c2C(C)C)cn2ncnc2c1C` (stereo not drawn) [Example 287], in that order: 0.7 nM, 2550 nM and 0.62 nM.
For `Cc1c(-c2[nH]c3ccc(C4CNCCO4)cc3c2C(C)C)cn2ncnc2c1C` (stereo not drawn) [Example 288] the same measures were 0.61 nM, 3160 nM and 0.52 nM.
Take `Cc1cc(-c2[nH]c3ccc(C4CN(C5COC5)CCO4)cc3c2C(C)C)cn2ncnc12` (stereo not drawn) [Example 289, 2-(3-isopropyl-2-(8-methyl-[1,2,4]triazolo[1,5-a]pyridin-6-yl)-1H-indol-5-yl)-4-(oxetan-3-yl)morpholine]: the figures for the IC50 in assay [1], in assay [2] and in assay [3] were 9 nM, over 50000 nM and 24 nM, respectively.
For `Cc1cc(-c2[nH]c3ccc(C4CN(C5COC5)CCO4)cc3c2C(C)C)cn2ncnc12` (stereo not drawn) [Example 290], in that order: 36 nM, over 50000 nM and 177 nM.
On to `Cc1cc(-c2[nH]c3ccc(C4CN(CC5(C)COC5)CCO4)cc3c2C(C)C)cn2ncnc12` (stereo not drawn) [Example 291], for which the half-inhibitory concentration (IC50) in assay [1] was 20 nM; in assay [2] it was over 50000 nM; in assay [3], 26 nM.
For `Cc1cc(-c2[nH]c3ccc(C4CN(CC5(C)COC5)CCO4)cc3c2C(C)C)cn2ncnc12` (stereo not drawn) [Example 292], in that order: 22 nM, 34200 nM and 2.8 nM.
For `Cc1cc(-c2[nH]c3ccc(C4CN(C)CCO4)cc3c2C(C)C)cn2ncnc12` (stereo not drawn) [Example 293] the same measures were 2 nM, 10100 nM and 1.1 nM.
For `Cc1cc(-c2[nH]c3ccc(C4CN(C)CCO4)cc3c2C(C)C)cn2ncnc12` (stereo not drawn) [Example 296], in that order: 3 nM, 8260 nM and 6.3 nM.
In the case of `Cc1cc(-c2[nH]c3ccc(C4CN(C)CCO4)cc3c2C(C)C)cn2ncnc12` (stereo not drawn) [Example 297], the IC50 came out at 2 nM in assay [1], 6630 nM in assay [2] and 0.61 nM in assay [3].
In the case of `COc1cc(-c2[nH]c3ccc(C4CN(C)CCO4)cc3c2C(C)C)cn2ncnc12` (stereo not drawn) [Example 299], the IC50 in assay [1] stood at 2 nM; in assay [2], 5570 nM; in assay [3], 3.3 nM.
For `COc1cc(-c2[nH]c3ccc(C4CN(C(C)C)CCO4)cc3c2C(C)C)cn2ncnc12` (stereo not drawn) [Example 300], in that order: 2 nM, 2500 nM and 6.4 nM.
For `COc1cc(-c2[nH]c3ccc(C4CN(C)CCO4)cc3c2C(C)C)cn2ncnc12` (stereo not drawn) [Example 301] the same measures were 7 nM, 6140 nM and 0.56 nM.
For `COc1cc(-c2[nH]c3ccc(C4CN(C(C)C)CCO4)cc3c2C(C)C)cn2ncnc12` (stereo not drawn) [Example 302] the same measures were 2 nM, 2600 nM and 0.42 nM.
On to `Cc1cc(-c2[nH]c3ccc(C4CN(C(C)C)CCO4)cc3c2C(C)C)cc(C)n1` (stereo not drawn) [Example 303], for which the IC50 came out at 15 nM in assay [1], 699 nM in assay [2] and 12 nM in assay [3].
Take `Cc1cc(-c2[nH]c3ccc(C4CN(C5COC5)CCO4)cc3c2C(C)C)cc(C)n1` (stereo not drawn) [Example 304]: the results for the IC50 in assay [1], in assay [2] and in assay [3] were 89 nM, over 50000 nM and 108 nM, respectively.
Take `Cc1cc(-c2[nH]c3ccc(C4CN(C(C)C)CCO4)cc3c2C(C)C)cc(C)n1` (stereo not drawn) [Example 305]: the half-maximal inhibitory concentration (IC50) in assay [1] was 32 nM; in assay [2], 1010 nM; in assay [3], 0.94 nM.
For `Cc1cc(-c2[nH]c3ccc(C4CN(CC(=O)N(C)C)CCO4)cc3c2C(C)C)cn2ncnc12` (stereo not drawn) [Example 306, 2-(2-(3-isopropyl-2-(8-methyl-[1,2,4]triazolo[1,5-a]pyridin-6-yl)-1H-indol-5-yl)morpholino)-N,N-dimethylacetamide] the same measures were 8 nM, over 50000 nM and 39 nM.
For `CNC(=O)CN1CCOC(c2ccc3[nH]c(-c4cc(C)c5ncnn5c4)c(C(C)C)c3c2)C1` (stereo not drawn) [Example 307], the IC50 is 8 nM in assay [1], over 50000 nM in assay [2] and 47 nM in assay [3].

The IC50 is the concentration at which inhibition is half-maximal.

The values are drawn from patent US11878975B2, “Substituted indole compounds useful as TLR inhibitors” (BRISTOL-MYERS SQUIBB COMPANY, priority 2017, dated 2024).
